From paper PMC11855144, “Role of Human DNA Ligases in Mediating Pharmacological Activities of Flavonoids” (International Journal of Molecular Sciences, 2025) come the findings set out here.

One test deals with human DNA ligase I (Homo sapiens, UniProt P18858). Description: nick-sealing DNA ligase assay (gel electrophoresis), DNA ligase I. Type of test: biochemical. Particulars: ATP 10 μM, DNA substrate 50 nM, human DNA ligase I 0.5 nM; for IC50: read-out: IC50 against human DNA ligase I (converted). The protocol: In this study, a standard nick-sealing assay was used to identify potential human DNA ligase inhibitors from representative flavonoids. […] Selected flavonoids with the resorcinol moiety in their A rings were tested as potential DNA ligase inhibitors. Epigallocatechin gallate (EGCG) is also a flavonoid found in plants, herbs, fruits, and green tea. Rutin is a flavonoid glycoside combining the flavonol quercetin and the disaccharide rutinose found in a wide variety of plants, including citrus. Quercetin is a plant flavonoid found in many fruits, vegetables, and other foods.
Figure 3 The effects of selected flavonoids on human DNA ligase I activity. DNA ligase assays were performed in reaction mixtures in the presence of ATP (10 μM), DNA substrate (50 nM), and human DNA ligase I (0.5 nM) as previously described.
Figure 4 The effects of cyaniding and rosinidin on human DNA ligase I activity. DNA ligase assays were performed in reaction mixtures in the presence of ATP (10 μM), DNA substrate (50 nM), and human DNA ligase I (0.5 nM) as previously described.
(§1) A 39 base pair nicked duplex was constructed and used as a substrate for the ligase reaction. In brief, the first 19 base pair oligonucleotide (5′-CGTAAAACGACGGCCAGTG-3′) and the second 20 base pair oligonucleotide (5′-[…]-3′) labeled with radioactive ^32P were annealed to the complementary 39 base pair oligonucleotide (5′-[…]-3′) to construct a 39 base pair nicked duplex as previously described. The resulting nicked duplex DNA was purified via 8% nondenaturing polyacrylamide gel electrophoresis.
(§2) DNA ligase I activity was routinely assayed according to a modified procedure described previously by determining the ligation of two oligonucleotides, which are hybridized to a complementary 39-mer oligonucleotide. Ligation of 5′-[^32P] end-labeled 20-mer oligonucleotide to the unlabeled 19-mer oligonucleotide was analyzed via polyacrylamide gel electrophoresis in the presence of 8 M urea. The assays were performed at least twice, and representative data are shown in this paper.

In a further test the test system is Caco-2 cells. Description: Caco-2 cell growth and morphology (phase contrast microscopy). Type of test: cell-based, human. The source says: (§3) Some flavonoids are known to be cytotoxic to different types of human cancer cell lines. […] Phase contrast views reveal that rutin-treated cells are relatively thin and shrunken, consistent with the reduced cellular densities commonly observed in cultures exposed to cytotoxic agents (Figure 7A). […] The γH2AX is a sensitive and selective marker for DSBs, as phosphorylation of H2AX (γH2AX) is increased at such breakage sites. […] Phase contrast micrographs of Caco-2 cells treated with various concentrations of rutin for 48 h. Photographs taken at 10× magnification: (A) increased expressions of γH2AX protein in Caco-2 cells incubated with rutin for 48 h, compared with corresponding solvent control group, as measured via Western blot (B). The human intestinal Caco-2 cells were grown at 37 °C and 5% CO2 in a humidified atmosphere, and treated and untreated control cells were examined using an inverted phase-contrast microscope (Fisher Scientific Inverted Phase Contrast Microscope EQ-006, Pittsburgh, PA, USA) to assess cell shape and morphology.

The next test relates to γH2AX protein. Description: γH2AX protein level in Caco-2 cells (Western blot). Format: cell-based, human. To be noted: 48 h, versus solvent control.
Source text: as §3, with “(B).” for “(B). The human intestinal Caco-2 cells were grown at 37 °C and 5% CO2 in a humidified atmosphere, and treated and untreated control cells were examined using an inverted phase-contrast microscope (Fisher Scientific Inverted Phase Contrast Microscope EQ-006, Pittsburgh, PA, USA) to assess cell shape and morphology.”

A further test has as its target T1, human DNA ligase IV (Homo sapiens, UniProt P49917).
T1 sequence (P49917 1-911): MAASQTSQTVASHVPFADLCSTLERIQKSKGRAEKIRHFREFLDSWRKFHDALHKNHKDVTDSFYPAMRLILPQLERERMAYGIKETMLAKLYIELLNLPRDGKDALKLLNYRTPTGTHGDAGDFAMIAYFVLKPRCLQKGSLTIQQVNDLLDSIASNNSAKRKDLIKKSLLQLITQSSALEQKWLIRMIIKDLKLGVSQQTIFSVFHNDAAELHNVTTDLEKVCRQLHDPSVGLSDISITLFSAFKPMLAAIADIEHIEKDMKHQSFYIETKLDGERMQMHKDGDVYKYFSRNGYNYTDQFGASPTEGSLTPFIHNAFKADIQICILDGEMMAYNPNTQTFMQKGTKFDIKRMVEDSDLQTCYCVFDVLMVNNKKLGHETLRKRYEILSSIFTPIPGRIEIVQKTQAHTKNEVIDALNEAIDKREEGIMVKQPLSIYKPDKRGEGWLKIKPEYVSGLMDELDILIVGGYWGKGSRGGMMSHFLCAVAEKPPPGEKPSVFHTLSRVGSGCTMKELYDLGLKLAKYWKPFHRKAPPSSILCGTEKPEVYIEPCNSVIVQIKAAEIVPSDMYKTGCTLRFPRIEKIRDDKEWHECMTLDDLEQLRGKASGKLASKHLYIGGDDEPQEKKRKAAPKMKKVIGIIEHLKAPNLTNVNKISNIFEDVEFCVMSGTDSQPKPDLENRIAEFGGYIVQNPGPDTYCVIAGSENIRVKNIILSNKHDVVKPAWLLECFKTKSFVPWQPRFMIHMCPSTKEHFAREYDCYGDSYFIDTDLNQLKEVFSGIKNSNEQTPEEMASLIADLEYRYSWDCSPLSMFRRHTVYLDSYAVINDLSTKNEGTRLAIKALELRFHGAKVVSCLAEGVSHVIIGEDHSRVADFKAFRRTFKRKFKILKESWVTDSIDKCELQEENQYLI
As to the kind of experiment: nick-sealing DNA ligase assay, DNA ligase IV. Type of test: biochemical. To be noted: ATP 10 μM, DNA substrate 50 nM; read-out: IC50 against human DNA ligase IV (converted). The protocol:
(§4) To validate the results from the molecular modeling studies, we also tested the effects of rutin on human DNA ligase III and IV activity.
(§5) Figure 6 The effects of rutin on human DNA ligases III and IV activities. DNA ligase assays were performed in reaction mixtures in the presence of ATP (10 μM), DNA substrate (50 nM), and human DNA ligase I (0.5 nM) as previously described.
as §1, §2

The target in another test is T2, human DNA ligase III (Homo sapiens, UniProt P49916).
T2 sequence (P49916 43-1009): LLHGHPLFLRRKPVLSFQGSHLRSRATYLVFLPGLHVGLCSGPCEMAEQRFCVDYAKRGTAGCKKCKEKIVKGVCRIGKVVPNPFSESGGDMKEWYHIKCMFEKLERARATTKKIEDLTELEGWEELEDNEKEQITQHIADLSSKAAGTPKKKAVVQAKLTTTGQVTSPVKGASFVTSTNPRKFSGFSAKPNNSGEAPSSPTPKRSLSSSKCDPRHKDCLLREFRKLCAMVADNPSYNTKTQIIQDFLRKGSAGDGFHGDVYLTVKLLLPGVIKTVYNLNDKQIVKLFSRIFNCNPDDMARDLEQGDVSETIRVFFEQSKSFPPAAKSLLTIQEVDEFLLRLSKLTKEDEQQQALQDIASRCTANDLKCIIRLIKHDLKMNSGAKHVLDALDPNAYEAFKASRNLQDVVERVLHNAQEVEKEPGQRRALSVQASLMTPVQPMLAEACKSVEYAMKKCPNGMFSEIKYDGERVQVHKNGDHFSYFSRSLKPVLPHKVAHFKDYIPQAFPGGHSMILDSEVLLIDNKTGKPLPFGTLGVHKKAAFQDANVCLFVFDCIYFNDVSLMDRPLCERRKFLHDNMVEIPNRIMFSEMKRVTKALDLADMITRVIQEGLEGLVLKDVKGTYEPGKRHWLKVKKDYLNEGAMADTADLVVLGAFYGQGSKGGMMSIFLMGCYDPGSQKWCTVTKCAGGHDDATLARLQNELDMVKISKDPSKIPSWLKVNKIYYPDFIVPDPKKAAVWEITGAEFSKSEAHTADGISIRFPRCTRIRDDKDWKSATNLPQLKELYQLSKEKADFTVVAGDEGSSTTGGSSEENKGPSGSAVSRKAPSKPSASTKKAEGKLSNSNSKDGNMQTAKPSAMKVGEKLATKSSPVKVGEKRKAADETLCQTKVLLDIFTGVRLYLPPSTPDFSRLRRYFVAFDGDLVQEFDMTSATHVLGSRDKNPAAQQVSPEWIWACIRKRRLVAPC
Description: nick-sealing DNA ligase assay, DNA ligase III. Particulars: ATP 10 μM, DNA substrate 50 nM; read-out: IC50 against human DNA ligase III (converted). Format: biochemical. The protocol: as §4, §5, §1, §2

Each structure is given as a SMILES string. In brackets after ≈: the same amount, converted by molar mass.

human DNA ligase I, sequence (P18858 whole entry): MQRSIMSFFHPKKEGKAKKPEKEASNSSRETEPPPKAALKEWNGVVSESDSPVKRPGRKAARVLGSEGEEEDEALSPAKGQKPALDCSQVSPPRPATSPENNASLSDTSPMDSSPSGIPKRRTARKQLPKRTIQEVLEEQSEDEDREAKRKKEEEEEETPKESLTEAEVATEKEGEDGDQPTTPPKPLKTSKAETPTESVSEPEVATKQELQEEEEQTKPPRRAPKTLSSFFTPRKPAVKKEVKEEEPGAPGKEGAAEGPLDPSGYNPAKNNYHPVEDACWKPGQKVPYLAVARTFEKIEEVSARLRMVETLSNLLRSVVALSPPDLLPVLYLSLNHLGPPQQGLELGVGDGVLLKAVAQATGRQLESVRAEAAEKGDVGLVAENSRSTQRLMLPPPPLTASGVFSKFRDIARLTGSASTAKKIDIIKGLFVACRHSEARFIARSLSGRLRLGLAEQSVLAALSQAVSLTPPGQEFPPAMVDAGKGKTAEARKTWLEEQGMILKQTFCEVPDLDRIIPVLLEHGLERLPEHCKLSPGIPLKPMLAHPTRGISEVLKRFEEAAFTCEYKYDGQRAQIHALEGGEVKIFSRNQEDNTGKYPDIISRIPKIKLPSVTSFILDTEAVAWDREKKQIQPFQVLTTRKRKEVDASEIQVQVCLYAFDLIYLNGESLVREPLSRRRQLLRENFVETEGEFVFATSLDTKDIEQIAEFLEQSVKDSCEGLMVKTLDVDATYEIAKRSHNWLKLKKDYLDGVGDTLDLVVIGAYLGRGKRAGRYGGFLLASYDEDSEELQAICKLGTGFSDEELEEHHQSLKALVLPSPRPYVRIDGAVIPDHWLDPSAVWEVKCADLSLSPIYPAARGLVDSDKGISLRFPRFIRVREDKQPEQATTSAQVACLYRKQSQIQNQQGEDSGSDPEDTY

In the case of `Oc1cc(O)c2cc(O)c(-c3ccc(O)c(O)c3)[o+]c2c1` [cyanidin], the IC50 at human DNA ligase I is ~3.48 µM.
Same read-out and setting: next, `Oc1cc(O)c2c(c1)O[C@H](c1cc(O)c(O)c(O)c1)[C@H](O)C2` [epigallocatechin]: 1.63 µM; `O=c1c(O)c(-c2ccc(O)c(O)c2)oc2cc(O)cc(O)c12` [quercetin]: 1.65 µM.
Take `COc1cc(O)c2cc(O)c(-c3ccc(O)c(OC)c3)[o+]c2c1` [rosinidin]: the “activity against human DNA ligase I” value at human DNA ligase I was “little activity”.
`C[C@@H]1O[C@@H](OC[C@H]2O[C@@H](Oc3c(-c4ccc(O)c(O)c4)oc4cc(O)cc(O)c4c3=O)[C@H](O)[C@@H](O)[C@@H]2O)[C@H](O)[C@H](O)[C@H]1O` [rutin]: the “effect on cell growth” value in the test with Caco-2 cells (Caco-2 cells, 48 h, concentrations lower than IC50) is “inhibitory effect on cell growth”. Moreover, the IC50 in the test with Caco-2 cells (Homo sapiens, Caco-2) is 25 µg/mL (≈ 40.9 µM); at human DNA ligase I, 4.91 µM; on human DNA ligase IV it was 1.64 µM; at human DNA ligase III it was 0.819 µM. In addition, the “levels of γH2AX protein” value in the test on γH2AX protein is “increases levels of γH2AX protein in a dose-dependent manner”.
